Data from US10987360B2, “Hepatitis B core protein modulators” (Assembly Biosciences, Inc., priority 2016, dated 2021).
Read-outs that look alike come from different tables or passages of the source.

Tests used:
[1] = test system: HBV viral load in AD38 cells; test: Viral load production in AD38 cells, quantitative PCR of the core sequence in supernatant; assay type: cell-based; conditions: 6 days incubation; for activity at 10 µM: Hepatitis B virus, 144 h
Description: (§1) Assay Measuring Activity of Compounds on Viral Production in and on Viability of AD38 Cells
(§2) AD38 cells grown in a 175 cm flask with “Growth Medium” (DMEM/F12 (1:1) (cat #SH30023.01, Hyclone, 1×Pen/step (cat #: 30-002-CL, Mediatech, Inc), 10% FBS (cat #: 101, Tissue Culture Biologics), 250 μg/mL G418 (cat #: 30-234-CR, Mediatech, Inc), 1 μg/mL Tetracycline (cat #: T3325, Teknova)) were detached with 0.25% trypsin. Tetracycline-free “treatment medium” (15 mL DMEM/F12 (1:1) (cat #SH30023.01, Hyclone, 1×Pen/step (cat #: 30-002-CL, Mediatech, Inc), with 2% FBS, Tet-system approved (cat #: 631106, Clontech) were then added to mix and spun at 1300 rpm for 5 min. Pelleted cells were then re-suspended/washed with 50 mL of 1×PBS 2 times and 10 mL Treatment Medium one time. AD38 cells were then re-suspended with 10 mL of Treatment Medium and counted. Wells of a collagen coated 96-well NUNC microtiter plate were seeded at 50,000/well in 180 μL of Treatment Medium, and 20 μL of in treatment media with either 10% DMSO (Control) or a 10× solution of compound in 10% DMSO was added. Plates were incubated for 6 days at 37° C.
Viral load production was assayed by quantitative PCR of the core sequence. Briefly, 5 μL of clarified supernatant was added to a PCR reaction mixture that contained forward primers HBV-f 5′-CTGTGCCTTGGGTGGCTTT-3′, Reverse primers HBV-r 5′-[…]-3′ and Fluorescent TaqMan™ Probes HBV-probe 5′-FAM/AGCTCCAAA/ZEN/[…]/3IABkFQ-3′ in Quanta Biosciences PerfeCTa® qPCR Toughmix®, and was subsequently on an Applied Biosystems VIIA7 in a final volume of 20 μL. The PCR mixture was incubated at 45° C. for 5 minutes, then 95° C. for 10 min, followed by 40 cycles of 10 seconds at 95° C. and 20 seconds at 60° C. Viral load was quantitated against known standards by using ViiA™ 7 Software. Viral load in the supernatant from wells with treated cells were compared against viral load in supernatant from DMSO control wells (≥3 per plate).

AD38 cells = test: Viability of AD38 cells, Promega CellTiter-Glo; assay type: cell-based; conditions: 6 days incubation, controls being 100%; for AD38 Viability Normalized Result (CPAM/DMSO %) at 10 μM: Table 6, compounds of Group 4
Description: as §1, §2
At the end of compound treatment period cell viability was assessed using a Promega CellTiter-Glo protocol. All supernatant was removed the previously treated 96-well microtiter plate, and 50 μL Tetracycline-free treatment medium (DMEM/F12 (1:1), 1×Pen/step (cat #: 30-002-CL, Mediatech, Inc), with 2% FBS, Tet-system approved (cat #: 631106, Clontech), and 1% DMSO was added back to each well. Another 50 μL of CellTiter-Glo reagent solution (Promega, G7573) was then added at room temperature and the contents mixed for 2 minutes on an orbital shaker to induce cell lysis. This was followed by incubation at room temperature for 10 minutes to stabilize the luminescent signal. The luminescence was recorded for 0.2 seconds per well on a Tecan multimode platereader (Infinite M1000 pro). The luminescent signal from each well was normalized against that of untreated (DMSO) control wells. All results in Tables 3-6 were reported with percent viability (with controls being 100%).

[2] = Table 6, compounds of Group 4, read-out: AD38 Viral Load (CpAM/DMSO %) at 10 μM
[3] = Table 4, compounds of Group 2, read-out: AD38 Viral Load (%) (VL with cmpd/VL in DMSO control) at 10 μM

Molecule	activity at 10 µM [1, 3] [%]	AD38 Viability Normalized Result (cmpd/DMSO %) at 10 μM (AD38 cells; Table 4, compounds of Group 2) [%]	also measured
N#Cc1ccc(-c2ncc(CNC(=O)c3ccc4c(c3)NC(=O)C43CCCCC3)s2)c(F)c1 [Compound C6-02, N-((2-(4-Cyano-2-fluorophenyl)thiazol-5-yl)methyl)-2′-oxospiro[cyclohexane-1,3′-indoline]-6′-carboxamide]	–	–	activity at 10 µM [1, 2]: 41.2%; AD38 Viability Normalized Result (CPAM/DMSO %) at 10 μM (AD38 cells): 91%
CC1=C(C)S(=O)(=O)c2ccc(C(=O)NCc3cnc(C(F)(F)F)s3)cc2NC1=O [Compound C10-01]	12.2	101	–
CC1=C(C)S(=O)(=O)c2ccc(C(=O)NCc3cnc(-c4ccc(C#N)cc4F)s3)cc2NC1=O [Compound C10-02]	4	95	–
CC1=C(C)S(=O)(=O)c2ccc(C(=O)NCc3cnc(-n4cccn4)s3)cc2NC1=O [Compound C10-04]	1.8	92	–
CC1=C(C)S(=O)(=O)c2ccc(C(=O)NCc3cnc(-c4ccc(OCCCN(C)C)cc4)s3)cc2NC1=O [Compound C10-05]	11.3	90	–
CC1=C(C)C(=O)Nc2cc(C(=O)NCc3cnc(C(F)(F)F)s3)ccc2S1 [Compound C12-01, 2,3-Dimethyl-4-oxo-N-((2-(trifluoromethyl)thiazol-5-yl)methyl)-4,5-dihydrobenzo[b][1,4]thiazepine-7-carboxamide]	15.5	97	–
CC1=C(C)C(=O)Nc2cc(C(=O)NCc3cnc(-c4ccc(C#N)cc4F)s3)ccc2S1 [Compound C12-02]	21.4	99	–
N#Cc1ccc(-c2ncc(CNC(=O)c3ccc4cc[nH]c4c3)s2)c(F)c1 [Compound C13-02, N-((2-(4-cyano-2-fluorophenyl)thiazol-5-yl)methyl)-1H-indole-6-carboxamide]	–	–	activity at 10 µM [1, 2]: 16.1%; AD38 Viability Normalized Result (CPAM/DMSO %) at 10 μM (AD38 cells): 105%
Cc1c[nH]c2cc(C(=O)NCc3cnc(C(F)(F)F)s3)ccc12 [Compound C14-01, 3-Methyl-N-((2-(trifluoromethyl)thiazol-5-yl)methyl)-1H-indole-6-carboxamide]	–	–	activity at 10 µM [1, 2]: 63%; AD38 Viability Normalized Result (CPAM/DMSO %) at 10 μM (AD38 cells): 113%
N#Cc1ccc(-c2ncc(CNC(=O)c3ccc4c(CC5CCOCC5)c[nH]c4c3)s2)c(F)c1 [Compound C18-02, N-((2-(4-cyano-2-fluorophenyl)thiazol-5-yl)methyl)-3-((tetrahydro-2H-pyran-4-yl)methyl)-1H-indole-6-carboxamide]	–	–	activity at 10 µM [1, 2]: 62.9%; AD38 Viability Normalized Result (CPAM/DMSO %) at 10 μM (AD38 cells): 106%
O=C(NCc1cnc(C(F)(F)F)s1)c1ccc2c(C3CCCCC3)c[nH]c2c1 [Compound C19-01, 3-Cyclohexyl-N-((2-(trifluoromethyl)thiazol-5-yl)methyl)-1H-indole-6-carboxamide]	–	–	activity at 10 µM [1, 2]: 30.8%; AD38 Viability Normalized Result (CPAM/DMSO %) at 10 μM (AD38 cells): 79%
Cc1[nH]c2cc(C(=O)NCc3cnc(C(F)(F)F)s3)ccc2c1C1CCCCC1 [Compound C20-01, 3-Cyclohexyl-2-methyl-N-((2-(trifluoromethyl)thiazol-5-yl)methyl)-1H-indole-6-carboxamide]	–	–	activity at 10 µM [1, 2]: 45.9%; AD38 Viability Normalized Result (CPAM/DMSO %) at 10 μM (AD38 cells): 47%
O=C1CC2CCCCN2c2ccc(C(=O)NCc3cnc(C(F)(F)F)s3)cc2N1 (centres unmarked) [Compound C21-01]	45.9	39	–
N#Cc1ccc(-c2ncc(CNC(=O)c3ccc4c(c3)NC(=O)CC3CCCCN43)s2)c(F)c1 (centres unmarked) [Compound C21-02]	48.9	15	–
Cc1c(C(=O)NCc2cnc(-c3ccc(OCCCN(C)C)cc3)s2)ccc2c1NC(=O)c1ccncc1S2(=O)=O [Compound C22-01]	7.1	92	–
Cc1c(C(=O)NCc2cnc(-n3cccn3)s2)ccc2c1NC(=O)c1ccncc1S2(=O)=O [Compound C22-02]	0.9	85	–
Cc1c(C(=O)NCc2cnc(-c3ccc(C#N)cc3F)s2)ccc2c1NC(=O)c1ccncc1S2(=O)=O [Compound C22-03]	0.5	90	–
N#Cc1ccc(-c2ncc(CNC(=O)c3ccc4c(c3)NC(=O)C3CCCN3S4(=O)=O)s2)c(F)c1 (centres unmarked) [Compound C24-02]	43	100	–
O=C(NCc1cnc(-n2cccn2)s1)c1ccc2c(c1)NC(=O)C1CCCN1S2(=O)=O (centres unmarked) [Compound C24-04]	7.7	104	–
N#Cc1ccc(-c2ncc(CNC(=O)c3ccc4c(c3)NC(=O)C3CCCCN3S4(=O)=O)s2)c(F)c1 (centres unmarked) [Compound C25-02]	0.5	95	–
O=C(NCc1cnc(-n2cccn2)s1)c1ccc2c(c1)NC(=O)C1CCCCN1S2(=O)=O (centres unmarked) [Compound C25-04]	5.4	98	–
O=C1NC2=C(CCN(C(=O)NCc3cnc(-n4cccn4)s3)C2)S(=O)(=O)c2ccccc21 [Compound C43-01, N-((2-(1H-pyrazol-1-yl)thiazol-5-yl)methyl)-10-oxo-3,4,10,11-tetrahydrobenzo[f]pyrido[4,3-b][1,4]thiazepine-2(1H)-carboxamide 5,5-dioxide]	64.4	97	–
CN(C)CCCOc1ccc(-c2ncc(CNC(=O)c3ccc4c(c3)NC(=O)c3ccncc3S4(=O)=O)s2)cc1 [Compound C46-01]	8.5	101	–
O=C(NCc1cnc(-n2cccn2)s1)c1ccc2c(c1)NC(=O)c1ccncc1S2(=O)=O [Compound C46-02]	0.9	102	–
ten-butyl (2-(4-(5-((5,5-dioxido-11-oxo-10,11-dihydrodibenzo[b,f][1,4]thiazepine-8-carboxamido) methyl) thiazol-2-yl) piperidin-1-yl)-2-oxoethyl) (methyl) carbamate [Compound 1035-A]	–	–	AD38 Viral Load (%) (VL with cmpd/VL in DMSO control) at 10 μM ([1]; Table 3, compounds of Group 1): 57.8%; AD38 Viability Normalized Result (cmpd/DMSO %) at 10 μM (AD38 cells; Table 3, compounds of Group 1): 102%
